Like-named read-outs stand apart in the source and are kept apart here.
Key:
Format in all cases: cell-based
Human neutrophils = assay: Inhibition of ROS production in human neutrophils (isoluminol chemiluminescence); details: Homo sapiens, Neutrophil, fMLP+TNF-α stimulated PMN
Procedure, shortened: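 Neutrophils from healthy-donor buffy coats (3×10^6/ml in HBSS with Ca/Mg) pre-incubated 30 min at 37° C with compound (0.1–10 μM), primed with TNF-α 20 ng/ml for 10 min, then added to fibrinogen-coated wells. Isoluminol/HRP chemiluminescence recorded every 25 sec for 250 sec after fMLP (1 μM), background-subtracted.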

IFN-gamma = assay: Cytokine release after LPS induction on human whole blood: IFNγ
Protocol: (§1) Aim of this in vitro method is to assess compounds effects on release of a panel of cytokines from whole blood following lipopolysaccharide (LPS) induced inflammatory reaction. Whole blood was incubated with compounds for 1 h prior to LPS induction. Cytokine levels in blood were measured using a multiplex FACS-based panel.
(§2) IC50 values determined for the tested compounds expressed in microM [μM] and the values for the inhibition of cytokines were listed for each compound.
(§3) Effect on cytokines release after LPS induction was performed on the compounds dissolved in DMSO or H2O to reach 10-fold concentrated stock solutions and dissolved in culture media.
(§4) Test system: Whole blood was removed from a single donor (into lithium heparin coated tubes; BD Vacutainer; 367886) and diluted 1:5 with RPMI 1640 (Thermo Fisher, 61870036). Within 30 minutes of sampling, blood was incubated with compounds for 1 h prior to LPS stimulation (O111:B4—Sigma L4391; 10 ng/ml final concentration). Stimulation continued under standard cell culture conditions (37° C. with 5% CO2) overnight (18 h), after which plates were centrifuged and supernatant removed and frozen at −80° C. until used for analyses.
(§5) Dilution of test compounds: 10×concentrated solutions (concerning to the final assay concentrations) of each test compound were prepared with the appropriate solvent (in DMSO or in water). These 10× compound solutions (10 μl) were then added to 90 μl pre-diluted whole blood (whole blood: RPMI1640, 1:5) resulting in the final assay concentration.
(§6) Test method: Diluted whole blood (80 μl) was pre-incubated with compounds (10 μl) to give final assay concentrations of 100, 30, 10, 3, 1, 0.3 and 0.1×10^−6M. Blood was incubated at 37° C. with 5% CO2 for 1 h. LPS was diluted in cell culture media to a concentration of […]; 10 μl was added to the whole blood to give a final concentration of 10 ng/ml. Plates were incubated at 37° C. for 18 h. Plates were centrifuged at 3,000 RPM for 5 minutes at 4° C. and supernatant removed and frozen at −80° C. until FACS analysis was carried out.
(§7) Cytokine release was measured using a custom multiplex system (ELISA Genie) according to manufacturers instructions. Prepared samples were run on an Attune NxT flow cytometer (Thermo Fisher).
(§8) Quantification of cytokine release inhibition: known concentration standards were run as part of the cytokine panel to allow quantification of each cytokine concentration in each sample. This was carried out using FCAP Array v3.0 software.
(§9) Results: The dose response relationship on cytokine release following LPS induction of inflammatory response in whole blood was assessed for all compounds. IC50 values were determined for each compound for a panel of cytokines (GM-CSF, IFN-gamma, IL-1beta, IL-2, IL-4, IL-5, IL-6, IL-8, IL-9, IL-10, IL-12p40, IL-13, IL-17A, IL-17F, IL-18, IL-21, IL-22, IL-33, TGF-beta, TNF-alpha, TNF-beta).

IL-10 = assay: Cytokine release after LPS induction on human whole blood: IL-10
Protocol: as §1, §2, §3, §4, §5, §6, §7, §8, §9

IL-9 = assay: Cytokine release after LPS induction on human whole blood: IL-9
Protocol: as §1, §2, §3, §4, §5, §6, §7, §8, §9

IL-1beta = assay: Cytokine release after LPS induction on human whole blood: IL-1β
Protocol: as §1, §2, §3, §4, §5, §6, §7, §8, §9

[1] = Homo sapiens, LPS 10 ng/ml, 18 h, read-out: Whole Blood: IFNγ IC50
[2] = human whole blood, inhibition of LPS induced inflammation, read-out: IC50 IFNγ
[3] = Homo sapiens, LPS 10 ng/ml, 18 h, read-out: Whole Blood: IL-10 IC50
[4] = human whole blood, inhibition of LPS induced inflammation, read-out: IC50 IL-10
[5] = Homo sapiens, LPS 10 ng/ml, 18 h, read-out: Whole Blood: IL-9 IC50
[6] = human whole blood, inhibition of LPS induced inflammation, read-out: IC50 IL-9
[7] = Homo sapiens, LPS 10 ng/ml, 18 h, read-out: Whole Blood: IL-1β IC50
[8] = human whole blood, inhibition of LPS induced inflammation, read-out: IC50 IL-1b

| Structure (SMILES) | inhibition at 0.3 µM (Human neutrophils) | IC50 (Human neutrophils) | IC50 (IFN-gamma; [1]) | IC50 (IFN-gamma; [2]) | IC50 (IL-10; [3]) | IC50 (IL-10; [4]) | IC50 (IL-9; [5]) | IC50 (IL-9; [6]) | IC50 (IL-1beta; [7]) | IC50 (IL-1beta; [8]) |
| --- | --- | --- | --- | --- | --- | --- | --- | --- | --- | --- |
| O=C(O)c1cc(O)c(C(=O)Nc2ccccc2C(=O)O)cc1O [Ia-001a, 4-(2-carboxyphenylaminocarbonyl)-2,5-dihydroxybenzoic acid] | 48% | 0.355 µM | 30.5 µM | 30.5 µM | > 100 µM | 100 µM | 5.63 µM | 5.63 µM | 34.4 µM | 34.4 µM |
| O=C(O)Cc1cc(O)c(C(=O)Nc2c(C(=O)O)cccc2C(=O)O)cc1O [IIIa-013a, 2-(4-(carboxymethyl)-2,5-dihydroxybenzamido)isophthalic acid] | 76.5% |  | 0.15 µM | 0.15 µM | 37.3 µM | 37.3 µM | 11.9 µM | 11.9 µM | > 100 µM | 100 µM |
| O=C(Nc1ccccc1-c1nnn[nH]1)c1cc(O)c(C(=O)Nc2ccccc2-c2nnn[nH]2)cc1O [Ic-001aTz2, N1,N4-bis(2-(1H-tetrazol-5-yl)phenyl)-2,5-dihydroxyterephthalamide] | 60.6% |  | 1.38 µM |  | > 100 µM |  | 9.13 µM |  | > 100 µM |  |
| COC(=O)c1cc(OC(C)=O)cc(CS(=O)(=O)Cc2cc(OC(C)=O)cc(C(=O)OC)c2OC(C)=O)c1OC(C)=O [IVc-059a-E2-A4] | 29.2% | 4.13 µM | 3.5 µM | 3.5 µM | 16.8 µM | 16.8 µM | 2.9 µM | 2.9 µM | 14.1 µM | 14.1 µM |
| O=C(O)c1cc(O)cc(CS(=O)(=O)Cc2cc(O)cc(C(=O)O)c2O)c1O [IVc-059a, 3-((2,5-Dihydroxy-3-carboxyphenyl)methylsulfonylmethyl)-2,5-dihydroxybenzoic acid] | 74% | 0.147 µM | 4.34 µM | 4.34 µM | 1.31 µM | 1.31 µM | 0.4 µM | 0.4 µM | 38.6 µM | 38.6 µM |
| O=C(O)c1cc(O)c(C(=O)Nc2ccc(-c3nnn[nH]3)cc2)cc1O [Ia-003a-Tz, 4-(4-(1H-tetrazol-5-yl)phenyl-aminocarbonyl)-2,5-dihydroxybenzoic acid] | 62.2% | 2.49 µM | 2.95 µM | 2.95 µM | 6.94 µM | 6.94 µM | 3.62 µM | 3.62 µM | > 100 µM | 100 µM |
| O=C(O)c1cc(NC(=O)c2cc(O)c(C(=O)O)cc2O)cc(NC(=O)c2cc(O)c(C(=O)O)cc2O)c1 [Ib-010a, 3,5-bis(2,5-dihydroxy-4-carboxybenzoylamino)benzoic acid] | 71.8% | 1.06 µM | 2.22 µM | 2.22 µM | > 100 µM | 100 µM | 11.6 µM | 11.6 µM | 33.3 µM | 33.3 µM |
| CC(=O)N(Cc1cc(O)c(C(=O)O)cc1O)Cc1cc(O)c(C(=O)O)cc1O [IIIc-057a, N,N-Bis(4-carboxy-2,5-dihydroxyphenylmethyl)acetamide] | 90.3% |  | 0.9 µM | 0.9 µM | > 100 µM | 100 µM | 11.1 µM | 11.1 µM | 16.2 µM | 16.2 µM |
